According to patent US20090005435A1, “Novel Compounds, Pharmaceutical Compositions Containing Same, and Methods of Use for Same” (priority 2004, published 2009):
≈ marks a conversion by molar mass, not a printed value. Where “and” joins values, the source holds several entries; their conditions need not be identical. Equal values may be shown once.

Columns and labels:
[1] = test system: MCF-7 human breast cancer cells; experiment: XTT cytotoxicity assay (M); format: cell-based; conditions: MCF7
Experimental: (§1) The XTT assay is a non-radioactive alternative for the [^51Cr] release cytotoxicity assay. XTT is a tetrazolium salt that is reduced to a formazan dye only by metabolically active, viable cells. The reduction of XTT is measured spectrophotometrically as OD490-OD650.
To measure the cytotoxicity of specific compounds against cancer cells, 9×10^3 MCF-7 human breast cancer cells, obtained from the American Type Culture Collection are plated per well in 96 well plates in DMEM medium with 10% fetal bovine serum, insulin, penicillin, and streptomycin. Following overnight culture at 37° C. and 5% CO2, the compounds to be tested, dissolved in DMSO, are added to the wells in 1 μl volume at the following concentrations: 80, 40, 20, 10, 5, 2.5, 1.25, and 0.625 μg/ml in triplicate. Additional concentrations are tested if required. 1 μl of DMSO is added to triplicate wells are the vehicle control. C75 is run at 40, 20, […], and 5 μg/ml in triplicate as positive controls.
(§2) After 72 hours of incubation, cells are incubated for 4 hours with the XTT reagent as per manufacturer's instructions (Cell Proliferation Kit II (XTT) Roche). Plates are read at OD490 and OD650 on a Molecular Devices SpectraMax Plus Spectrophotometer. Three wells containing the XTT reagent without cells serve as the plate blank. XTT data are reported as OD490-OD650. Averages and standard error of the mean are computed using SOFTmax Pro software ([…]).
(§3) The IC50 for the compounds is defined as the concentration of drug leading to a 50% reduction in OD490-OD650 compared to controls. The OD490-OD650 are computed by the SOFTmax PRO software (Molecular Devices) for each compound concentration. IC50 is calculated by linear regression, plotting the FAS activity as percent of control versus drug concentrations. Linear regression, best-fit line, r^2, and 95% confidence intervals are determined using Prism Version 3.0 (Graph Pad Software).

(O) = experiment: XTT cytotoxicity assay (O); format: cell-based; conditions: read-out: XTT (IC50) (O)
Experimental: as §1, §2, §3

fatty acid oxidation = experiment: β-Oxidation assay, isolation of acid soluble products; format: cell-based; set-up: Beta Oxidation: unit not given here; conditions: for FAO MAx: maximal fatty acid oxidation, at the concentration given under E32
Experimental: β-Oxidation Assay—Isolation of Acid Soluble Products A 24 well plate with 1 ml per well was prepared with 2.5×10^5 cells/well. The cells were incubated O/N. The next day, a solubilized palmitate solution was prepared. 50 μls of (1-^14C) Palmitic acid was added to a 2 ml centrifuge tube and dried under nitrogen gas. 2 mls of α-CD (α-Cyclodextran)-10 mg/ml in 10 mM Tris were added. This solution was incubated in a 37° C. water bath for 30 minutes. A hot mix was prepared by adding 25 μls of this solution to 2.5 μls of 200 μM Carnitine and 222.5 μls of serum free medium that is used for cells. The cells were then treated with the test compound in triplicate, and incubated at 37° C. for 60 minutes. The medium was removed and 250 μls of the hot mix were added. The test compound was added again, and further incubated at 37° C. for 60 minutes. The reaction was stopped with 50 μls of 2.6 N HClO4. The contents of the plate were transferred to a 1.5 ml centrifuge tube, and 50 μls of 4N KOH were then added, and the tube incubated in a 60° C. water bath for 30 min. Sodium acetate (1M, 75 μls) and sulfuric acid (3N, 50 μls) were added to the solution and vortexed. The tube was spun for 7 minutes at 1000 rpm at room temperature. A portion (225 μls) was removed, and the following were added (vortex after each addition, twice at the end): 938 μls of 1:1 Chloroform:Methanol; 468 μls of Chloroform; 281 μls distilled Water. The tubes were spun at 1000 rpm for 5 minutes. The upper phase was removed into a large glass scintillation vial and 5 mls of Budget solvent (scintillation liquid) was added. The tubes were well vortexed. Finally, C14 was counted for one minute.

purified human FAS = molecular target: T1, purified human FAS (Homo sapiens, UniProt P49327); experiment: FAS enzymatic activity (malonyl-CoA dependent NADPH oxidation); format: biochemical; conditions: (SB)
T1 construct: Human FAS was purified from cultured ZR-75-1 human breast cancer cells; endogenous in cells; host or cells: ZR-75-1 human breast cancer cells (ATCC); enzyme purified by PEG precipitation and Mono Q chromatography
Experimental: Purification of FAS from ZR-75-1 Human Breast Cancer Cells.
Human FAS was purified from cultured ZR-75-1 human breast cancer cells obtained from the American Type Culture Collection. The procedure, adapted from Linn et al., 1981, and Kuhajda et al., 1994, utilizes hypotonic lysis, successive polyethyleneglycol (PEG) precipitations, and anion exchange chromatography. ZR-75-1 cells are cultured at 37° C. with 5% CO2 in RPMI culture medium with 10% fetal bovine serum, penicillin and streptomycin.
Ten T150 flasks of confluent cells are lysed with 1.5 ml lysis buffer (20 mM Tris-HCl, pH 7.5, 1 mM EDTA, 0.1 mM phenylmethanesulfonyl fluoride (PMSF), 0.1% Igepal CA-630) and dounce homogenized on ice for 20 strokes. The lysate is centrifuged in JA-20 rotor (Beckman) at 20,000 rpm for 30 minutes at 4° C. and the supernatant is brought to 42 ml with lysis buffer. A solution of 50% PEG 8000 in lysis buffer is added slowly to the supernatant to a final concentration of 7.5%. After rocking for 60 minutes at 4° C., the solution is centrifuged in JA-20 rotor (Beckman) at 15,000 rpm for 30 minutes at 4° C. Solid PEG 8000 is then added to the supernatant to a final concentration of 15%. After the rocking and centrifugation is repeated as above, the pellet is resuspended overnight at 4° C. in 10 ml of Buffer A (20 mM K2HPO4, pH 7.4). After […] filtration, the protein solution is applied to a Mono Q 5/5 anion exchange column (Pharmacia). The column is washed for 15 minutes with buffer A at 1 ml/minute, and bound material is eluted with a linear 60-ml gradient over 60 minutes to 1 M KCl. FAS (MW˜270 kD) typically elutes at 0.25 M KCl in three 0.5 ml fractions identified using 4-15% SDS-PAGE with Coomassie G250 stain (Bio-Rad). FAS protein concentration is determined using the Coomassie Plus Protein Assay Reagent (Pierce) according to manufacturer's specifications using BSA as a standard. This procedure results in substantially pure preparations of FAS (>95%) as judged by Coomassie-stained gels.
Measurement of FAS Enzymatic Activity and Determination of the IC50 of the Compounds
FAS activity is measured by monitoring the malonyl-CoA dependent oxidation of NADPH spectrophotometrically at OD340 in 96-well plates (Dils et al and Arslanian et al, 1975). Each well contains 2 μg purified FAS, 100 mM K2HPO4, pH 6.5, 1 mM dithiothreitol (Sigma), and 187.5 μM β-NADPH (Sigma). Stock solutions of inhibitors are prepared in DMSO at 2, 1, and 0.5 mg/ml resulting in final concentrations of 20, 10, and 5 μg/ml when 1 μl of stock is added per well. For each experiment, cerulenin (Sigma) is run as a positive control along with DMSO controls, inhibitors, and blanks (no FAS enzyme) all in duplicate.
The assay is performed on a Molecular Devices SpectraMax Plus Spectrophotometer. The plate containing FAS, buffers, inhibitors, and controls are placed in the spectrophotometer heated to 37° C. Using the kinetic protocol, the wells are blanked on duplicate wells containing 100 μl of 100 mM K2HPO4, pH 6.5 and the plate is read at OD340 at 10 sec intervals for 5 minutes to measure any malonyl-CoA independent oxidation of NADPH. The plate is removed from the spectrophotometer and malonyl-CoA (67.4 μM, final concentration per well) and […] (61.8 μM, final concentration per well) are added to each well except to the blanks. The plate is read again as above with the kinetic protocol to measure the malonyl-CoA dependent NADPH oxidation. The difference between the Δ OD340 for the malonyl-CoA dependent and non-malonyl-CoA dependent NADPH oxidation is the specific FAS activity. Because of the purity of the FAS preparation, non-malonyl-CoA dependent NADPH oxidation is negligible.
The IC50 for the compounds against FAS is determined by plotting the Δ OD340 for each inhibitor concentration tested, performing linear regression and computing the best-fit line, r^2 values, and 95% confidence intervals. The concentration of compound yielding 50% inhibition of FAS is the IC50. […]

[2] = molecular target: rat liver acyl-CoA synthetase; conditions: read-out: 50% inhibition of rat liver acyl-CoA synthetase; cited from earlier work
Raji cells = conditions: cited from earlier work
viral HIV protease = viral HIV protease (Human immunodeficiency virus type 1 group M subtype B, UniProt P04585); conditions: cited from earlier work
[3] = test system: Mycobacterium tuberculosis; conditions: in vitro; cited from earlier work

T1 sequence (P49327 whole entry): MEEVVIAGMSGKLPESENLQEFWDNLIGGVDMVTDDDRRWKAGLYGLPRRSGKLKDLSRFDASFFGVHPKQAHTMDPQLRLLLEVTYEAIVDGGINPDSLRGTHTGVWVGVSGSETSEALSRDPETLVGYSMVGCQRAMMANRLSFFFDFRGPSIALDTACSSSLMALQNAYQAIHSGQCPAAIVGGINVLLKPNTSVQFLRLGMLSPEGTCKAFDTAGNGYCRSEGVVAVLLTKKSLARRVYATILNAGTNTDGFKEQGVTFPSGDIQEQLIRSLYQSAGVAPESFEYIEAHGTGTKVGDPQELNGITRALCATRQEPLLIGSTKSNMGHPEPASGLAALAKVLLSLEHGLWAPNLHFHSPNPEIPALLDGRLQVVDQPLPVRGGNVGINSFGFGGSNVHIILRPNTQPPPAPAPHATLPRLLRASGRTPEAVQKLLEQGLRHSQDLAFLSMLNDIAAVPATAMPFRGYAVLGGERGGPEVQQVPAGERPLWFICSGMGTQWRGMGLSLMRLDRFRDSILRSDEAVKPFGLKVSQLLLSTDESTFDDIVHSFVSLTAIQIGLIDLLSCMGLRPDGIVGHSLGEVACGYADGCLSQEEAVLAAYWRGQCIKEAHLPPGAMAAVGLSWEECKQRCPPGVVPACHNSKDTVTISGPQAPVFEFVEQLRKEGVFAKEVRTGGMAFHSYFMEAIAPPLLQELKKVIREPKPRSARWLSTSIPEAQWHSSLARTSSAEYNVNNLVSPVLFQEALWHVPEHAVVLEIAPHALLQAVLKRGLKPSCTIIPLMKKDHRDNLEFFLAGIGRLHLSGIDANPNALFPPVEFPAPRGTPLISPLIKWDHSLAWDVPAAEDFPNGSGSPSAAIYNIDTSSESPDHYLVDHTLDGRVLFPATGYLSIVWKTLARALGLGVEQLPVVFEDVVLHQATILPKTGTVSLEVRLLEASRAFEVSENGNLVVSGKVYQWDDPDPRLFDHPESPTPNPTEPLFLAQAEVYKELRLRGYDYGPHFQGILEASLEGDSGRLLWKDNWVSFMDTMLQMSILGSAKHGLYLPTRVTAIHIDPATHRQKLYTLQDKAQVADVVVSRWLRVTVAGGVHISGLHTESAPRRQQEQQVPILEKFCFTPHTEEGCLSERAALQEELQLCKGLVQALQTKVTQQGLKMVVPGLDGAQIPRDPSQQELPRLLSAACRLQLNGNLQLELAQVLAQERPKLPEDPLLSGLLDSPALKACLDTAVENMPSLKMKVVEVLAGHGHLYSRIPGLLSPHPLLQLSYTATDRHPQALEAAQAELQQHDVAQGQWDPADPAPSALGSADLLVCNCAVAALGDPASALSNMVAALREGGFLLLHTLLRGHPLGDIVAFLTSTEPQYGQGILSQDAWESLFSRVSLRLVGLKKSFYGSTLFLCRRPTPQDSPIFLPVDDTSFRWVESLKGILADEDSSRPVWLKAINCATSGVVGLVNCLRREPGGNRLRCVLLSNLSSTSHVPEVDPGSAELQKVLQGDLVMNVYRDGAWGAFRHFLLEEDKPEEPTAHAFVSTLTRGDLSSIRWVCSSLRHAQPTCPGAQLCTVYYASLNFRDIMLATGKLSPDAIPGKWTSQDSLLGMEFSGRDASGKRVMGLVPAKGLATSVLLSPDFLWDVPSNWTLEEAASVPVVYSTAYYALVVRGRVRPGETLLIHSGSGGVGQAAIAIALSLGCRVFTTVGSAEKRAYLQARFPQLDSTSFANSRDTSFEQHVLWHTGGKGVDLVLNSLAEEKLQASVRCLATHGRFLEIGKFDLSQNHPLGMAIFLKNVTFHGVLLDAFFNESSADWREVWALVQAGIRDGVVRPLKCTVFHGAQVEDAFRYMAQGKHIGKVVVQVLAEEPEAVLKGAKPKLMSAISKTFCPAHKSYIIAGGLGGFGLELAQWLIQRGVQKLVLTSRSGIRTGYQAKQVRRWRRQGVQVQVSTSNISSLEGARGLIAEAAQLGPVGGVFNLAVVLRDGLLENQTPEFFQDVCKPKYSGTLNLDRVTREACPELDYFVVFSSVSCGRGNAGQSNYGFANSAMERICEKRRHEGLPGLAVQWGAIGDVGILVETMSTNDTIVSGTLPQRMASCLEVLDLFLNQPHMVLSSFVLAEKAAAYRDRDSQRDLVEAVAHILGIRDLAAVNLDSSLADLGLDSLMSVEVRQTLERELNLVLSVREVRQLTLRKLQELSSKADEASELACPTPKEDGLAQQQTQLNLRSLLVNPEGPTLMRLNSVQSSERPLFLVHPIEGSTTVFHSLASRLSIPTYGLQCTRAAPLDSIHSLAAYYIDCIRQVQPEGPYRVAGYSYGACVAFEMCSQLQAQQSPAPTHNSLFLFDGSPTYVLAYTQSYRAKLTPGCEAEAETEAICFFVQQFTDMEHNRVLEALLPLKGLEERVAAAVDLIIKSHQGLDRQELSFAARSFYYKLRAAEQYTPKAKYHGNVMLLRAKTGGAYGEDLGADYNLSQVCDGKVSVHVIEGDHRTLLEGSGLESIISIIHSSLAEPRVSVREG

CCCCCCCCC1(C)SC(=O)C(C)(C)C1=O (stereo not shown) [Compound 6, 3,3,5-Trimethyl-5-octyl-thiophene-2,4-dione]
IC50 [1]: 23 µg/mL (≈ 85 µM) | IC50 ((O)): > 80 µg/mL | FAO MAx, concentration at maximum (fatty acid oxidation): 6.25 µg/mL | FAO SC 150 (fatty acid oxidation): Neg | Beta Oxidation (fatty acid oxidation; 0.097 ug/ml): 100 and 86 | Beta Oxidation (fatty acid oxidation; 0.39 ug/ml): 110 and 93 | Beta Oxidation (fatty acid oxidation; 1.56 ug/ml): 110 and 102 | Beta Oxidation (fatty acid oxidation; 6.25 ug/ml): 121 and 141 and 130 | Beta Oxidation (fatty acid oxidation; 25 ug/ml): 57 and 52 and 53 | Beta Oxidation (fatty acid oxidation; 100 ug/ml): 19 and 29 | FAO MAx (fatty acid oxidation): 141% at | FAS (IC50) (SB) (purified human FAS): Neg (SB)

CCCCCCC1(C)SC(=O)C(C)(C)C1=O (stereo not shown) [Compound 9, 3,3,5-Trimethyl-5-hexyl-thiophene-2,4-dione]
IC50 [1]: 5.3 µg/mL (≈ 21.9 µM) | IC50 ((O)): 14 µg/mL (≈ 57.8 µM) | FAO MAx, concentration at maximum (fatty acid oxidation): 6.25 µg/mL | FAO SC 150 (fatty acid oxidation): Neg | Beta Oxidation (fatty acid oxidation; 0.097 ug/ml): 96 | Beta Oxidation (fatty acid oxidation; 0.39 ug/ml): 99 | Beta Oxidation (fatty acid oxidation; 1.56 ug/ml): 97 | Beta Oxidation (fatty acid oxidation; 6.25 ug/ml): 115 | Beta Oxidation (fatty acid oxidation; 25 ug/ml): 58 | Beta Oxidation (fatty acid oxidation; 100 ug/ml): 27 | FAO MAx (fatty acid oxidation): 115% | FAS (IC50) (SB) (purified human FAS): Neg (SB)

CCCC=CCC=CC=CC=NN=NO [Triacsin C, 1-hydroxy-3-(E,E,E-2′,4′,7′-undecatrienylidine) triazene]
IC50 [2]: 8.7 µM | growth inhibition in Raji cells at (Raji cells): 1.0 µM

C/C=C/C/C=C/CCC(=O)[C@H]1O[C@H]1C(N)=O [cerulenin, (2S,3R)-2,3-epoxy-4-oxo-7,10 dodecadienoyl amide]
inhibition of viral HIV protease at (viral HIV protease): 5 mg/mL | activity against Mycobacterium tuberculosis [3]: no activity was found
